Measurements published in patent US20180369244A1, “BTK Inhibitors to Treat Solid Tumors Through Modulation of the Tumor Microenvironment” (Acerta Pharma B.V., priority 2014, published 2018).

How the values were obtained:
[1] = system: human platelet-mediated thrombosis; settings: mouse, in vivo
Procedure: Injury to the vessel wall of arterioles ([…] diameter) was performed using a pulsed nitrogen dye laser (440 nm, Photonic Instruments) applied through a 20× water-immersion Olympus objective (LUMPlanF1, 0.5 numerical aperature (NA)) of a Zeiss Axiotech vario microscope. […] The extent of thrombus formation was assessed for 2 minutes after injury and the area (μm^2) of coverage determined (Image IQ, Andor Technology).
The BTK inhibitor-treated human platelets were fluorescently labeled and infused continuously through a catheter inserted into the femoral artery.

B cell receptor = test: Whole blood B cell receptor signalling, CD69 on CD19+ B cells; format: cell-based; settings: 2 h incubation, anti-human IgD 18 h
Procedure: Blood from four healthy donors was incubated for 2 hours with the compounds shown over a concentration range, and then stimulated with anti-human IgD [10 μg/mL] for 18 hours. The mean fluorescent intensity (MFI) of CD69 (and CD86, data not shown) on gated CD19+ B cells was measured by flow cytometry. MFI values were normalized so that 100% represents CD69 level in stimulated cells without inhibitor, while 0% represents the unstimulated/no drug condition. […]

[2] = system: GPVI platelet aggregation; test: GPVI platelet aggregation (convulxin-induced); format: cell-based, human
Procedure: GPVI platelet aggregation was measured for Formula (II) and Formula (X) (ibrutinib). Blood was obtained from untreated humans, and platelets were purified from […] by centrifugation. Cells were resuspended to a final concentration of […] in buffer containing 145 mmol/L NaCl, 10 mmol/L HEPES, 0.5 mmol/L Na2HPO4, 5 mmol/L KCl, 2 mmol/L MgCl2, 1 mmol/L CaCl2, and 0.1% glucose, at pH 7.4. Stock solutions of Convulxin (CVX) GPVI were prepared on the day of experimentation and added to platelet suspensions 5 minutes (37° C., 1200 rpm) before the induction of aggregation. Aggregation was assessed with a Chronolog Lumi-Aggregometer (model 540 VS; Chronolog, Havertown, Pa.) and permitted to proceed for 6 minutes after the addition of agonist. The results are reported as maximum percent change in light transmittance from baseline with platelet buffer used as a reference.
In FIG. 23, the results of CVX-induced (250 ng/mL) human platelet aggregation results before and 15 minutes after administration of the BTK inhibitors to 6 healthy individuals are shown.

NK cells = test: Antibody-dependent NK cell degranulation (CD107a flow cytometry); format: cell-based, human; settings: DHL-4 target cells
Raji cells = test: Rituximab ADCC chromium release assay; format: cell-based, human; settings: 1 μM
Source text: Cell culture conditions were as follows. […] The HER18 cells were maintained in DEM supplemented with fetal bovine serum, penicillin-streptomycin and. Prior to assay, HER18 cells were harvested using trypsin-EDTA, washed with phosphate-buffered saline (PBS) containing 5% serum and viable cells were counted. For culture of primary target cells, peripheral blood from CLL patients was subject to density centrifugation to obtain peripheral blood mononuclear cells (PBMC). Cell preparations were washed and then subject to positive selection of CD5+CD19^+ CLL cells using magnetic beads (MACS, Miltenyi Biotech). Cell preparations were used fresh after selection. NK cells from CLL patients and healthy volunteers were enriched from peripheral blood collected in sodium citrate anti-coagulant tubes and then subject to density centrifugation. Removal of non NK cells was performed using negative selection by MACS separation. Freshly isolated NK cells were washed three times, enumerated, and then used immediately for ADCC assays.
ADCC assays were performed as follows. Briefly, target cells (Raji or primary CLL) were labeled by incubation at 37° C. with 100 μCi ^51Cr for 4 hours prior to co-culture with NK cells. Cells were washed, enumerated, and then added in triplicate to prepared 96-well plates containing treated NK cells at an effector:target (E:T) ratio of 25:1. […] The effect of NK cell natural cytotoxicity was assessed in wells containing no rituximab. Cultures were incubated at 37° C. for 4 hours, and then centrifuged. Supernatants were harvested and ^51Cr release was measured by liquid scintillation counting. All experiments were performed in triplicate.

CD4+ T cells = test: Th17 and Treg development from CD4+ T cells; format: cell-based
Procedure: Enriched CD4^+ T cells are plated on 24-well culture dishes that have been precoated 2 hr with 250 μL anti-TCRβ (0.5 μg/mL) plus anti-CD28 (5 μg/mL) at 37° C. in PBS. The cells are then supplemented with media containing BTK inhibitors along with the skewing cytokines as indicated in the following. The Th17 and Treg cultures are grown for 4 days before analysis. The cells are maintained for an additional 3 days with skewing cytokines (Th17; 20 ng/mL IL-6, 0.5 ng/mL TGF-β, 5 μg/mL IL-4, 5 μg/mL IFN-γ and Treg; 0.5 ng/mL TGF-β, 5 μg/mL IL-4, 5 μg/mL IFN-γ) and are supplemented with IL2 as a growth factor.

CD8+ T cells [3] = test: CD8+ T cell viability; format: cell-based; settings: 4 days culture
Procedure: Total T cells were plated on anti-TCR and anti-CD28 coated wells in the presence of both BTK inhibitors. Neutral culture conditions were used that will not polarize T cells to a helper lineage. The cells are grown for 4 days and are then stained with anti-CD4, anti-CD8 and LIVE/DEAD reagent to determine if the drugs have selective effects on either the CD4^+ or CD8^+ cells. Statistical significance was calculated using the Mann Whitney T-test. […]

CD8+ T cells [4] = test: Cytotoxic T cell (CTL) assay; format: cell-based; settings: 500 nM
Procedure: CD8^+ T cells have at least two primary effector functions: (1) produce large amounts of IFN-γ (which activates macrophages), and (2) cytolytic activity. […] The targets were B lymphoblasts from lipopolysaccharide (LPS) treated cultures. The assay was performed by incubating different ratios of effectors:targets for 4 hours.

CLL, MCL, NHL patients = settings: monotherapy, dose levels through 840 mg; cited from earlier work
CLL = settings: cited from earlier work
[5] = Phase 1 portion, relapsed/refractory CLL (n=13)

Compound | effect on thrombus formation [1] | EC50 (B cell receptor) [nM] | GPVI platelet aggregation ([2]; FIG. 22 and FIG. 23) | IC50 ([2]; Homo sapiens, Platelet, FIG. 22) [nM] | reduction of rituximab-stimulated NK cell degranulation (NK cells) [%] | rituximab ADCC, NK cell activity (Raji cells; FIG. 31) | antibody-dependent lysis of rituximab-coated Raji cells (Raji cells; healthy donor NK cells) | Th17 and Treg development (CD4+ T cells) | CD8+ T cell viability (CD8+ T cells [3]) | CD8+ T cell function as % cytotoxicity (CD8+ T cells [4]) | CD8+ T cell function as IFN-γ levels (CD8+ T cells [4]) | maximum tolerated dose (MTD) (CLL, MCL, NHL patients) | response rate (CLL; Phase 1, previously treated CLL, monotherapy) [%] | infusion related reactions, Grade 3 (CLL; [5]) [%] | patients with all grade AE (infusion related reactions) (CLL; [5]) [%] | IRR cases developing symptoms of hypotension (CLL; Phase 2 portion) [%] | hypotension cases that were Grade 3 reactions (CLL; Phase 2 portion) [%] | patients who developed IRR (CLL; Phase 2 portion) [%]
C=CC(=O)Nc1cccc(Nc2nc(Nc3ccc(OCCOC)cc3)ncc2F)c1 [CC-292, N-(3-((5-fluoro-2-((4-(2-methoxyethoxy)phenyl)amino)pyrimidin-4-yl)amino)phenyl)acrylamide] | interfere with thrombus formation | 121 |  |  |  |  |  |  |  |  |  |  |  |  |  |  |  | 
C=CC(=O)N1CCC[C@@H](n2nc(-c3ccc(Oc4ccccc4)cc3)c3c(N)ncnc32)C1 [ibrutinib, 1-[(3R)-3-[4-amino-3-(4-phenoxyphenyl)-1H-pyrazolo[3,4-d]pyrimidin-1-yl]piperidin-1-yl]prop-2-en-1-one, reference compound] | interfere with thrombus formation | 6.1 | significantly inhibits GPVI platelet aggregation | 130 | ~50 | completely inhibited ADCC | strongly inhibited the antibody-dependent lysis of target cells | a profound inhibition of Th17 cells and an increase in Treg development | strong, negative effect | affects CD8^+ T cell function | significant loss of function | No maximum tolerated dose (MTD) was apparent |  |  |  |  |  | 
obinutuzumab: humanized monoclonal antibody directed against CD20, type II glycoengineered |  |  |  |  |  |  |  |  |  |  |  |  | 62 | 15 | 100 | 60 | 25 | 95
